# pIC50: −log10 of the molar value. Entries after “also recorded” stand apart in the source; their conditions may differ. Where two headings read alike, the source gives them in different places.
# How the values were obtained:
# [1] = system: healthy donor CD34+ cells; assay: Effect on healthy donor CD34+ cells; assay type: cell-based, human; conditions: proliferation and apoptosis
# [2] = system: BCR-ABL1 transformed Ba/F3 cells; assay: Cell proliferation of BCR-ABL1 transformed Ba/F3 cells (MTS); assay type: cell-based, murine
# Procedure: (§1) Cell lines and patient samples were exposed to dose ranges of single or combination agents and incubated for 3 days at 37° C., 5% CO2 and subjected to a CellTiter 96 AQueous One solution cell proliferation assay (Promega). IC50 values calculated and analyzed using Prism 6 software (GraphPad).
# Plates were incubated at 37° C. for 72 h and analyzed by standard MTS-based colorimetric assay. Non-linear regression curve-fit analysis and IC50 calculations were performed using Graphpad Prism software.
# K562 cells [3] = assay: K562 cell proliferation assay; assay type: cell-based; conditions: Homo sapiens
# Procedure: as §1
# [4] = system: Ba/F3 BCR-ABL1 T315I cells; assay: Cell proliferation of Ba/F3 cells expressing BCR-ABL1 T315I; assay type: cell-based, murine; conditions: versus wild-type BCR-ABL1
# Procedure: as §1
# BCR-ABL1 [5] = target: T1, BCR-ABL1 (Homo sapiens, UniProt P00519); assay: BCR-ABL1 degradation in primary patient LSCs (CD34+CD38-) by immunoblot; assay type: cell-based; parameters: induce degradation of both BCR-ABL1 and ABL1 in primary patient LSCs; BCR N-terminal portion (fusion partner, human BCR P11274); endogenous in cells; host or cells: primary CML patient CD34+/CD38- cells (patient 1); the other entry of the earlier key: BCR (P11274, Breakpoint cluster region protein); conditions: CD34+/CD38- cells, patient 1, overnight
# Procedure: MNCs isolated from specimens via ficoll, then selected for CD34+ by MACs column. Frozen viables were thawed and cultured in IMDM+40 ug/mL LDL+20% FBS+100 uM BME overnight. Sorted using FACS Aria III, stained with CD34 (BD348801) and CD38 (BD555461).
# Cells were lysed in Cell Signaling lysis buffer supplemented with PMSF and Complete Mini protease inhibitor tablets. Protein concentration assessed via BCA assay, ran on 4-15% tris-glycine polyacrylamide gel at 180V for 1 h, transferred overnight at 25V, blocked with 5% BSA in TBST for 1 h and incubated at 4 degree in following primary antibodies.
# Target sequence in this assay (P00519 28-1130 limits assumed): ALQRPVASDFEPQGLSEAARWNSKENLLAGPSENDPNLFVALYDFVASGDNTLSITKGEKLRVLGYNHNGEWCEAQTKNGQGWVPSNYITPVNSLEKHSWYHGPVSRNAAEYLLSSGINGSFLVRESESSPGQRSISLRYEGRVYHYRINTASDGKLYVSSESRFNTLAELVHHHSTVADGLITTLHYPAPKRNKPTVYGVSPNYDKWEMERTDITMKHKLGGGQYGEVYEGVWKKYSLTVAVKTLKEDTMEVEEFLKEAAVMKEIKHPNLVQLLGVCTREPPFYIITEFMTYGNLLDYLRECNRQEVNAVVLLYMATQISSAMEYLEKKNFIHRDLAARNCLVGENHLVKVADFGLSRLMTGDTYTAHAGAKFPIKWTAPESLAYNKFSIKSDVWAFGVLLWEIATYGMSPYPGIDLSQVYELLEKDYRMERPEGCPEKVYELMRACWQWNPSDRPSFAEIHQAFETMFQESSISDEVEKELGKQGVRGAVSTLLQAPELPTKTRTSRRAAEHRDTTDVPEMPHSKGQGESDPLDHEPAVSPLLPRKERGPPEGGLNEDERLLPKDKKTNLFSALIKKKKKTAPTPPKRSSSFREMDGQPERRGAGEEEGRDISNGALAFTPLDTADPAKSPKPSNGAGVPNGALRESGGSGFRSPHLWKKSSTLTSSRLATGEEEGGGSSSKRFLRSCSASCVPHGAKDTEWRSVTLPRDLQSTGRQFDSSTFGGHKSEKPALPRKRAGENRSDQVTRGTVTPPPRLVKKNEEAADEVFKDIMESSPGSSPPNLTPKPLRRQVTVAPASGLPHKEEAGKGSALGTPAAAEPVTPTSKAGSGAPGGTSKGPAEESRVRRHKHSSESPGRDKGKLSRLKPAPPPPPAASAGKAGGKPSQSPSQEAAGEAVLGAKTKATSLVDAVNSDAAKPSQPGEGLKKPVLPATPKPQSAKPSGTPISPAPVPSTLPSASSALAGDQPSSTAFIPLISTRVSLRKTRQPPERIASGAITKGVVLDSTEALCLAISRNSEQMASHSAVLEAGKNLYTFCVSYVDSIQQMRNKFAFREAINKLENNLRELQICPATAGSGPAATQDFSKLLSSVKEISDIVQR
# [6] = system: Ba/F3 BCR-ABL1 G250E cells; assay: Cell proliferation of Ba/F3 cells expressing BCR-ABL1 G250E; assay type: cell-based, murine; conditions: versus wild-type BCR-ABL1
# Procedure: as §1
# BCR-ABL1 [7] = target: T1, BCR-ABL1; assay: BCR-ABL1 signaling and scaffolding in K562 cells (RPPA, immunoblot); assay type: cell-based; parameters: K562 cell lines were purchased from ATCC; BCR N-terminal portion (fusion partner, human BCR P11274); host or cells: K562; the other entry of the earlier key: BCR (P11274, Breakpoint cluster region protein)
# Description: (§2) Samples were lysed in 1× Cell Signaling lysis buffer (#9803S) supplemented with PMSF and complete mini tablets (Sigma #11836153001). Lysates were quantified and separated on 4-15% Tris-glycine polyacrylamide gels. Gels were transferred and then blocked in TBS-Tween buffer with 5% BSA. The following primary antibodies were used: tABL, BD #554148 anti-mouse 1:400; c-ABL1, SantaCruz #24-11 anti-mouse 1:1000; B-tubulin, Millipore #05-66-MI anti-mouse 1:5000; pSTAT5, # CS9351S anti-rabbit 1:1000 pSTAT5, # CS4322 anti-rabbit 1:1000; pBCR-Abl, # CS2865 anti-rabbit 1:1000; pCRKL, # CS491 anti-rabbit 1:1000; pAKT, # CS4060 anti-rabbit 1:1000; pERK, # CS4695 anti-rabbit 1:1000; pSHP-2, Abcam #62322 anti-rabbit 1:1000; pGAB1, # CS3233 anti-rabbit 1:1000; pGAB2, # CS3882 anti-rabbit 1:1000; pSHC, # CS2434 anti-rabbit 1:1000; VHL, # CS68547 anti-rabbit 1:1000; pCRKL, # CS3181S anti-rabbit 1:1000. Following incubation with appropriate HRP-conjugated secondary antibodies, membranes were imaged on a BioRad ChemiDoc using BioRad Clarity Western ECL substrate and Thermo Super Signal West Femto Maximum Sensitivity substrate.
# RPPA was performed in the MDACC CCSG core as described at http://www.mdanderson.org/education-and-research/resources-for-professionals/scientific-resources/core-facilities-and-services/functional-proteomics-rppa-core/index.html.
# (§3) K562 cells were treated with the indicated concentrations of compound for 24 hours, washed with PBS and then harvested in lysis buffer (50 mM Tris (pH 7.4), 150 mM NaCl, 1 mM EDTA, 0.5% NP-40, phosphatase and protease inhibitors). Following centrifugation at 13,000×g for 15 minutes at 4° C. to pellet insoluble materials, the protein concentrations of the supernatants were quantitated by BCA assay (Thermo Fisher Scientific). Protein samples were resolved by SDS-PAGE, transferred to nitrocellulose, blocked with 5% non-fat milk and probed with the marked antibodies. Immunoblots were developed using enhanced chemiluminescence and visualized using a Bio-Rad Chemi-Doc MP Imaging System with Image Lab v.5.2.1 software (Bio-Rad Laboratories).
# Target sequence in this assay (P00519 with tags, fused parts or gaps): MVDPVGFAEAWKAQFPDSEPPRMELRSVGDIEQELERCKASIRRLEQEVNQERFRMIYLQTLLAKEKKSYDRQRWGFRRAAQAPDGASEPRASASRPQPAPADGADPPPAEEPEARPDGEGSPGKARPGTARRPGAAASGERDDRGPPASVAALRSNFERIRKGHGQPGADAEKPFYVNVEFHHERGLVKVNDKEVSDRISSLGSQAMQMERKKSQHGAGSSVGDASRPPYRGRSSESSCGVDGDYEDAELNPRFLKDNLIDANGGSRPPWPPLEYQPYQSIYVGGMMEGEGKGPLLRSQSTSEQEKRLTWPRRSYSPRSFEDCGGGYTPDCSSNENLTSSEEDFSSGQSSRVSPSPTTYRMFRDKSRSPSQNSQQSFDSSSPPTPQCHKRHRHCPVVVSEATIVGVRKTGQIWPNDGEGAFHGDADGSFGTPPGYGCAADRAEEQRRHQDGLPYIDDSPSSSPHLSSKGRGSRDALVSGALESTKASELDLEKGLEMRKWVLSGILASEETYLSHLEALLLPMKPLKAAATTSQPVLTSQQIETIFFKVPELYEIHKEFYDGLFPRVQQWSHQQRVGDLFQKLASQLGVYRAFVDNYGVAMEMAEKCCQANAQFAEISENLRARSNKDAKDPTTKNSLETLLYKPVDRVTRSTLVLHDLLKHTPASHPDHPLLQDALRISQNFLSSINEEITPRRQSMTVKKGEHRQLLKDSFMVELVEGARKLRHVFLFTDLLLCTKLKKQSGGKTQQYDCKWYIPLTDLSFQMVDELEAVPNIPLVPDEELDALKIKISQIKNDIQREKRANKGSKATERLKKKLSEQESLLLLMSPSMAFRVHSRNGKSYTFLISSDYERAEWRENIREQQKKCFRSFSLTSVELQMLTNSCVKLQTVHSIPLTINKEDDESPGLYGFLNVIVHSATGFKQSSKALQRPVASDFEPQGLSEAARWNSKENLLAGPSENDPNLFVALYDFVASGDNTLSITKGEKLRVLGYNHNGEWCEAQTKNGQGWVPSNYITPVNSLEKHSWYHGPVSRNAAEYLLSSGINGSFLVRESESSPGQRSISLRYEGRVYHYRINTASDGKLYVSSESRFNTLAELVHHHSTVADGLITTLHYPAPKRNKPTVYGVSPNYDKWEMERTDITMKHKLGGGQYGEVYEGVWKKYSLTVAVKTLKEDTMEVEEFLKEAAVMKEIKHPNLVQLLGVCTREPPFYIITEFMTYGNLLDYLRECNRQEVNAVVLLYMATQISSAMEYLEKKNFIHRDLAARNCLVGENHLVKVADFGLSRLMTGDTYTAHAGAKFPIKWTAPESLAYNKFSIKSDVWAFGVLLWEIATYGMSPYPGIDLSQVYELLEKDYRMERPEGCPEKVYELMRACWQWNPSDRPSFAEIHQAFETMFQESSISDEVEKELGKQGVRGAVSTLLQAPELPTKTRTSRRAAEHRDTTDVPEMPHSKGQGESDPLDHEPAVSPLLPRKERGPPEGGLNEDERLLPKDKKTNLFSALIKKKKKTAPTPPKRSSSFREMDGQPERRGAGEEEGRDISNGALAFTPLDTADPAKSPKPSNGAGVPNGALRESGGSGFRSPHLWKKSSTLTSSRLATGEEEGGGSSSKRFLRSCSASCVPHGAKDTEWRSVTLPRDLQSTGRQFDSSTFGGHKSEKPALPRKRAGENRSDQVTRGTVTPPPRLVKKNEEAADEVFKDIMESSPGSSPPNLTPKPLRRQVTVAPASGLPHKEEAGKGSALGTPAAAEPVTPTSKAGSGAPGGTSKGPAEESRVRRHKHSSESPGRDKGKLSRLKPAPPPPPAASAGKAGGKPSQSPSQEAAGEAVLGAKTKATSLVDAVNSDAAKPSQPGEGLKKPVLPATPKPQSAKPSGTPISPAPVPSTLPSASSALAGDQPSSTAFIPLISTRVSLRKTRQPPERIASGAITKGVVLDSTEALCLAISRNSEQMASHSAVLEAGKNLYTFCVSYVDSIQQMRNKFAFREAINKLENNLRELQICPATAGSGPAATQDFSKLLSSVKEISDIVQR
# [8] = system: primary CML CD34+ patient cells; assay: Proliferation of primary CML patient CD34+ cells; assay type: cell-based, human; conditions: CD34+ cells from newly diagnosed CML patients
# Procedure: as §1
# BCR-ABL1 [9] = target: T1, BCR-ABL1; assay: Immunoblot of co-treatment with ponatinib in Ba/F3 BCR-ABL1 wild-type cells; assay type: cell-based, murine; parameters: BCR N-terminal portion (fusion partner, BCR P11274); expressed in transfected cells; the other entry of the earlier key: BCR (P11274, Breakpoint cluster region protein); conditions: overnight co-treatment with ponatinib
# Description: as §2
# Target sequence in this assay (P00519 28-1130 limits assumed): as the sequence (P00519 28-1130 limits assumed) above
# BCR-ABL1 [10] = target: T1, BCR-ABL1; assay: BCR-ABL1 / c-ABL1 degradation in K562 cells by immunoblot; assay type: cell-based; parameters: K562 cell lines were purchased from ATCC; BCR N-terminal portion (fusion partner, human BCR P11274); host or cells: K562; the other entry of the earlier key: BCR (P11274, Breakpoint cluster region protein); conditions: for DC50 / BCR-Abl and c-Abl levels on co-treatment with GMB-805 (Compound 19) / BCR-ABL1 and c-ABL1 levels on co-treatment with Compound 10: K562 cells; for BCR-Abl and c-Abl levels on co-treatment with GMB-805 (Compound 19): 1 μM GMB-805, 8 hours; for BCR-ABL1 and c-ABL1 levels on co-treatment with Compound 10: 8 hour treatment, compared to Compound 10 alone
# Procedure: The cells were collected at 300 g for 3 min. […] The total protein concentrations were determined by Pierce BCA Protein Assay and 30-50 μg of protein was loaded onto 10% Tris-Glycine gels. After standard gel electrophoresis, the separated proteins were transferred to nitrocellulose by wet transfer. The immunoblots were then processed by standard procedures and incubated with the respective antibodies. Band intensities were quantified by Bio-Rad's Image Lab software.
# Gels were transferred and then blocked in TBS-Tween buffer with 5% BSA. […] Following incubation with appropriate HRP-conjugated secondary antibodies, membranes were imaged on a BioRad ChemiDoc using BioRad Clarity Western ECL substrate and Thermo Super Signal West Femto Maximum Sensitivity substrate.
# as §3, with “Following” for “K562 cells were treated with the indicated concentrations of compound for 24 hours, washed with PBS and then harvested in lysis buffer (50 mM Tris (pH 7.4), 150 mM NaCl, 1 mM EDTA, 0.5% NP-40, phosphatase and protease inhibitors). Following”
# Target sequence in this assay (P00519 with tags, fused parts or gaps): as the sequence (P00519 with tags, fused parts or gaps) above
# [11] = system: primary CML CD34+ patient cells; assay: Apoptosis (Annexin V) in primary CML patient cells; assay type: cell-based, human; conditions: patient 1; no appreciable difference between PROTAC and diastereomer control
# Procedure: Mononuclear cells (MNCs) were isolated from either peripheral blood, bone marrow or leukapheresis samples by Ficoll gradient. MNCs were then treated with ammonium-chloride-potassium (ACK) lysis buffer to remove any residual red blood cells. […] For cell proliferation assays, samples were thawed and cultured in R10. For immunoblot assays, samples were thawed and cultured in IMDM with 40 μg/mL low-density lipoprotein (LDL, Stem Cell), 20% FBS, and 100 μM beta-mercaptaethanol (Sigma).
# Sorted samples were recovered overnight in culture in IMDM with 40 μg/mL low-density lipoprotein (LDL, Stem Cell), 20% FBS, and 100 μM beta-mercaptaethanol (Sigma).
# [12] = Pharmacokinetics in mouse; assay type: in vivo; conditions: 10 mg/kg IP
# Procedure: The pharmacokinetic properties were determined at Pharmaron, China. The exemplary compound was formulated (in 5% EtOH & 5% Solutol HS15 in D5W(ESD-2)) and administered by intraperitoneal (I.P.) injection at a dosing level of 10 mg/kg. Plasma samples were collected at 0.25 hours, 0.5 hours, 1 hour, 2 hours, 4 hours, 8 hours, and 24 hours following dosing.
# Acetonitrile was added to precipitate protein and the samples were vortexed for 30 second, centrifuged (4000 rpm, 15 minutes), diluted with water and the compound concentration determined by LC/MS/MS according to a standard curve.
# K562 cells [13] = assay: K562 xenograft model in athymic mice; assay type: in vivo; conditions: 200 mg/kg IP once every 24 hours, day 4-6
# Procedure: K562 cells were implanted subcutaneously into the flank of athymic mice and tumors were allowed to develop to approx. 200 mm^3. Animals were then randomised into treatment or vehicle groups on day 1. On day 4-6, animals were either treated with exemplary compound GMB-805 (Compound 19; 200 mg/kg) or vehicle control by IP injection once every 24 hours.
# All in vivo experiments were conducted in accordance with institutional guidelines and were approved by Yale Institutional Animal Care & Use Committee. Mice were housed in pathogen-free animal facilities and with access to food and water ad libitum. K562 cells in Matrigel (Corning Life Sciences) were injected subcutaneously into the flank of athymic mice (Charles River) and allowed to proliferate until tumors reached −200 mm^3 at which point mice were randomized into treatment groups and treated I.P. with vehicle or exemplary compound once a day at 200 mg/kg for 3 days. Tumors were measured via caliper and volumes calculated following equation:
# where V=volume, L=Length and W=Width
smiles,measurement,setting,value
Cc1ccc(NC(=O)c2ccc(CN3CCN(C)CC3)cc2)cc1Nc1nccc(-c2cccnc2)n1 [imatinib],effect on healthy donor CD34+ cells,[1],had no effect on healthy donor CD34+ cells
Cc1ncsc1-c1ccc(CNC(=O)[C@@H]2C[C@@H](O)CN2C(=O)[C@@H](NC(=O)COCCOc2ccc(-c3cc(Nc4ccc(OC(F)(F)F)cc4)ncn3)cc2)C(C)(C)C)cc1 [Compound 10],pIC50,"[2]; Mus musculus, BaF3, single agent, 72 h (FIG. 6A), read-out: IC50, dose response titration",5.95
same,reduction of the IC50 of imatinib by co-treatment,[2]; co-treatment of imatinib with 2.5 μM Compound 10,~3 fold
same,pIC50,"K562 cells [3]; FIG. 5B/D: K562 and Ba/F3 BCR-ABL1 cells, read-out: cell proliferation IC50",~6.00
same,effect of T315I mutation on potency,[4],had little effect on the potency of Compound 10
same,degradation of BCR-ABL1 and ABL1,BCR-ABL1 [5],able to induce degradation of both BCR-ABL1 and ABL1
same,anti-proliferative activity against G250E mutant,[6],enhanced anti-proliferative activity
same,total ABL1 protein by RPPA,"BCR-ABL1 [7]; K562, 5 μM, 8 h",showed a decrease in total ABL1 protein
same,phosphorylation of GAB2 and SHC,"BCR-ABL1 [7]; K562, full serum (10% FBS)",able to reduce phosphorylation of GAB2 and SHC
same,"kinase activity of BCR-ABL1 (pBCR-ABL1 Tyr412, pSTAT-5)","BCR-ABL1 [7]; K562, immunoblot, 8 h and 24 h",able to inhibit the kinase activity of BCR-ABL1
same,"phosphorylation of GAB2, SHC and STAT5","BCR-ABL1 [7]; K562, serum-free","able to inhibit phosphorylation of GAB2 and SHC, as well as STAT5"
same,potency at inhibiting proliferation relative to Compound 14,[8],greater than 2 fold
same,effect of co-treatment with ponatinib (immunoblot),BCR-ABL1 [9],enhanced the ability of Compound 10 to induce degradation
same,degradation of BCR-ABL1 and c-ABL1,"BCR-ABL1 [10]; K562 (FIG. 5A) and Ba/F3 (FIG. 5C) cells, dose- and time-dependent",induce the degradation of BCR-ABL1 and c-ABL1
same,Dmax,"BCR-ABL1 [10]; K562, read-out: Dmax (%) [cell line]",95%
same,DC50,BCR-ABL1 [10]; read-out: DC50,0.34 µM
same,apoptosis in sorted progenitor (CD34+CD38+) and stem (CD34+CD38-) cells,[11],induced apoptosis in the progenitor cells and to a lesser extent in the stem cells
"NS(=O)(=O)OC[C@@H]1C[C@@H](n2ccc3c(N[C@H]4CCc5ccccc54)ncnc32)C[C@@H]1O [MLN-4924, reference compound]",BCR-Abl and c-Abl levels on co-treatment with GMB-805 (Compound 19),BCR-ABL1 [10],able to rescue protein levels
same,BCR-ABL1 and c-ABL1 levels on co-treatment with Compound 10,BCR-ABL1 [10],inhibited the degradation of BCR-ABL1 and ABL1
"CC[C@H](C)[C@H](NC(=O)[C@H]([C@@H](C)CC)N(C)C(C)=O)C(=O)N[C@H](C(=O)N[C@@H](CC(C)C)C(=O)[C@@]1(C)CO1)[C@@H](C)O [epoxomicin, reference compound]",BCR-Abl and c-Abl levels on co-treatment with GMB-805 (Compound 19),BCR-ABL1 [10],restored protein concentration back to untreated levels
same,BCR-ABL1 and c-ABL1 levels on co-treatment with Compound 10,BCR-ABL1 [10],restored the levels of BCR-ABL1 and c-ABL1
Cc1ncsc1-c1ccc(CNC(=O)[C@@H]2C[C@@H](O)CN2C(=O)[C@@H](NC(=O)COCCNc2ncc(C(=O)Nc3ccc(OC(F)(F)Cl)cc3)cc2-c2ccn[nH]2)C(C)(C)C)cc1 [Compound 19],Cmax,[12],well over above both the DC50 and IC50
same,pIC50,"K562 cells [3]; K562 (FIG. 16B), read-out: antiproliferative activity IC50",6.77
same,toxicity or weight loss,K562 cells [13],no toxicity or weight loss was observed; also recorded: induced no weight loss
same,tumor volume,K562 cells [13],no significant increase in tumor volume
same,DC50,"BCR-ABL1 [10]; extended dose response, 24 hours (FIG. 16A), read-out: DC50 (concentration at which half maximal degradation is observed)",0.03 µM

# From patent publication US20200297725A1, “ALLOSTERIC BCR-ABL PROTEOLYSIS TARGETING CHIMERIC COMPOUNDS” (YALE UNIVERSITY, priority 2019, published 2020)
